Reference: ChEMBL document CHEMBL5291721, “A preclinical secondary pharmacology resource illuminates target-adverse drug reaction associations of marketed drugs” (Nat Commun, 2023)

Tests used:
[1] = molecular target: T1, Alpha-1A adrenergic receptor (Homo sapiens, UniProt P35348)
T1 sequence (P35348 whole entry): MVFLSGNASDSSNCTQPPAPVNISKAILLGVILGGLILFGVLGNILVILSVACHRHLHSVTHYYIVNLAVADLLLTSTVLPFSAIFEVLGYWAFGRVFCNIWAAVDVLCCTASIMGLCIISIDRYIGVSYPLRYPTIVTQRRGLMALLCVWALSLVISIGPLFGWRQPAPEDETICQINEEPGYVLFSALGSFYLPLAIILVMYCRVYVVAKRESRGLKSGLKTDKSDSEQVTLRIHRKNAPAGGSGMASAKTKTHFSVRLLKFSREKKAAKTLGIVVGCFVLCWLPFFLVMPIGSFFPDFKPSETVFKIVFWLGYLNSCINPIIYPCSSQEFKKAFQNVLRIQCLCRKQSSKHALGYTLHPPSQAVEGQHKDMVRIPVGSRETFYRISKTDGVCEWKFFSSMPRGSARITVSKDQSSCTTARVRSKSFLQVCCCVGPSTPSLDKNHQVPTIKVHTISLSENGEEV

[2] = molecular target: Beta-2 adrenergic receptor (Homo sapiens, UniProt P07550)
Histamine H3 receptor [3] = molecular target: T2, Histamine H3 receptor (Homo sapiens, UniProt Q9Y5N1)
[4] = molecular target: Kappa-type opioid receptor (Homo sapiens, UniProt P41145)
[5] = molecular target: T1, Alpha-1A adrenergic receptor; type: functional, cell-based
Melanocortin receptor 4 = Melanocortin receptor 4 (Homo sapiens, UniProt P32245)
Cannabinoid receptor 1 = Cannabinoid receptor 1 (Homo sapiens, UniProt P21554); type: functional, cell-based
Thromboxane A2 receptor [6] = molecular target: T3, Thromboxane A2 receptor (Homo sapiens, UniProt P21731)
T3 sequence (P21731 whole entry): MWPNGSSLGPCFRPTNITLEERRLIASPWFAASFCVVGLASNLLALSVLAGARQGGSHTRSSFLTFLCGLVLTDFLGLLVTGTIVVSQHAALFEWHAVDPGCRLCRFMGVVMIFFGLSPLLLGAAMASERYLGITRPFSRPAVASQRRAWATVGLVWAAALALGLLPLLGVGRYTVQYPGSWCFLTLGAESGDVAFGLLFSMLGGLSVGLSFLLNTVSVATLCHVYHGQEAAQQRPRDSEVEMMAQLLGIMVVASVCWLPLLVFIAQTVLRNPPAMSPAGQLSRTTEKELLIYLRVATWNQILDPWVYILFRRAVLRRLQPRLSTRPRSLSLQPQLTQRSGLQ

D(1A) dopamine receptor = D(1A) dopamine receptor (Homo sapiens, UniProt P21728)
Histamine H3 receptor [7] = molecular target: T2, Histamine H3 receptor; remark: listed apart in the source
Thromboxane A2 receptor [8] = molecular target: T3, Thromboxane A2 receptor; type: functional, cell-based
[9] = molecular target: T4, Alpha-2A adrenergic receptor (Homo sapiens, UniProt P08913)
T4 sequence (P08913 whole entry): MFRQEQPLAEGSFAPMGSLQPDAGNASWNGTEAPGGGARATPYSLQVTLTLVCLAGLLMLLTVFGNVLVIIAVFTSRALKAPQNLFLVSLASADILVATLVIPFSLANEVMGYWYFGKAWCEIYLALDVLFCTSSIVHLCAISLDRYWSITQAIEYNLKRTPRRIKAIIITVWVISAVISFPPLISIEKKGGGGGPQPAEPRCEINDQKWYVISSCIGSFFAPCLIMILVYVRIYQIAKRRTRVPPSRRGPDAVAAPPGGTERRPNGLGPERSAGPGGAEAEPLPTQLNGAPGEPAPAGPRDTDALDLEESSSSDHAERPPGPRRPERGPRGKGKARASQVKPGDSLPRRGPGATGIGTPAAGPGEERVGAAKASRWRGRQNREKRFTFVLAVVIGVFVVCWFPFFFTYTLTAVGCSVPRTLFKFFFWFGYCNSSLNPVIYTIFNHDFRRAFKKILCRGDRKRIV

[10] = molecular target: T5, Muscarinic acetylcholine receptor M1 (Homo sapiens, UniProt P11229); type: functional
T5 sequence (P11229 whole entry): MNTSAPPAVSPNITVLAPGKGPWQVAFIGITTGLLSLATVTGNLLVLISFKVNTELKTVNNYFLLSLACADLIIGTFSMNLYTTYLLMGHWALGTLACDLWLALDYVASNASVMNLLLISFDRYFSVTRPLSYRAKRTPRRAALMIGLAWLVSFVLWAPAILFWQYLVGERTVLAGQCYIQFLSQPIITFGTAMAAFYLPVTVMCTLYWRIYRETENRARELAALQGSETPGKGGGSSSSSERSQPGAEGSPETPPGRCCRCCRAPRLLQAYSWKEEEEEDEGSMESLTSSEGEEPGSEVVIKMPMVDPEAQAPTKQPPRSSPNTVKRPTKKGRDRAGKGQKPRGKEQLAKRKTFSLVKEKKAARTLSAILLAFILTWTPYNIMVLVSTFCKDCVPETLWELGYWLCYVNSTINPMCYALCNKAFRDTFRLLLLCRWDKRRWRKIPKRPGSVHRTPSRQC

[11] = molecular target: T6, Alpha-2B adrenergic receptor (Homo sapiens, UniProt P18089)
T6 sequence (P18089 whole entry): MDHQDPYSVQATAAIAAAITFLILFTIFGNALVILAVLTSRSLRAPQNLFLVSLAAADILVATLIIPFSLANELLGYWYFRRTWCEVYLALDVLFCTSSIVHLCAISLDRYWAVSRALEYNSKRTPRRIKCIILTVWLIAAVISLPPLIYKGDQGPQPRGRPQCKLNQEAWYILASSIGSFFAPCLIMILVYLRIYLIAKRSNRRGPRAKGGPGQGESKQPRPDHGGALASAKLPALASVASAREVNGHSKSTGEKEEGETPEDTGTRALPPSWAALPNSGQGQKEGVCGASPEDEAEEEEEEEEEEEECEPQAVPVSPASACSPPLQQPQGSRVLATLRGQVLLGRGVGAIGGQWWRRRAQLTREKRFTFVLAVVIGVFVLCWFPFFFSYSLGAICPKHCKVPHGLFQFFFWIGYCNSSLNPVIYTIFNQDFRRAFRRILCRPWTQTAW
Also: assay procedure not described here.

Sequence of Cannabinoid receptor 1 (P21554 whole entry): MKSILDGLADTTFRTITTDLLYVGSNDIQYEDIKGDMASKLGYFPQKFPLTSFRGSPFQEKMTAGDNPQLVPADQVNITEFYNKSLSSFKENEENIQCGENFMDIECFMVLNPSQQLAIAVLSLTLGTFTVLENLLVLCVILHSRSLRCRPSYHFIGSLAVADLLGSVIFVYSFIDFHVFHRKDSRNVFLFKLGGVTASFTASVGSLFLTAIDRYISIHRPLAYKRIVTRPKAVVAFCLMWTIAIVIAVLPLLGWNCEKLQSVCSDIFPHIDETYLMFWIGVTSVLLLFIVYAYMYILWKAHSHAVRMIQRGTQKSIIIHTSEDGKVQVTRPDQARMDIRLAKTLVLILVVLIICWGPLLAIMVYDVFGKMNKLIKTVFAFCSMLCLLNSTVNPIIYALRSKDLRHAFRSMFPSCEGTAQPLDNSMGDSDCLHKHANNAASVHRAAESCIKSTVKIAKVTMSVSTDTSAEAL
Sequence of Melanocortin receptor 4 (P32245 whole entry): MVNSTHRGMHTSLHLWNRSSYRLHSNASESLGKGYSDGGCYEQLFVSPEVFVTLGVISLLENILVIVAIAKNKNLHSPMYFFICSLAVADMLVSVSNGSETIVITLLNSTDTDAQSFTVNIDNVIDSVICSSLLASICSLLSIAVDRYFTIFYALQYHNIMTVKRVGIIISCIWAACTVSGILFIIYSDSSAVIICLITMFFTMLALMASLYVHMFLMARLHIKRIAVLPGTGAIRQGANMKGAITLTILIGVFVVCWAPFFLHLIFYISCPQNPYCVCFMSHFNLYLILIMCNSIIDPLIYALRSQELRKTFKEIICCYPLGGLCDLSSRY
Sequence of Kappa-type opioid receptor (P41145 whole entry): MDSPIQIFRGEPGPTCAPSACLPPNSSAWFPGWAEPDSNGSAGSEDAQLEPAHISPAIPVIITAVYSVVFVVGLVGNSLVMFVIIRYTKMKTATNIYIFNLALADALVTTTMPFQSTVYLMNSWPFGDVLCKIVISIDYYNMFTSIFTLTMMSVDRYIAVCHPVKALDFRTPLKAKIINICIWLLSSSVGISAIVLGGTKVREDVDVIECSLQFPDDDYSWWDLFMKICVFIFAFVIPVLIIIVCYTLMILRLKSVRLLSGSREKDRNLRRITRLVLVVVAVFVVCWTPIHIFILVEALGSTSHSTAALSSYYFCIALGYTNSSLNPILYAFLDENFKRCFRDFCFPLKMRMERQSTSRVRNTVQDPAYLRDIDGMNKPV
Sequence of Beta-2 adrenergic receptor (P07550 whole entry): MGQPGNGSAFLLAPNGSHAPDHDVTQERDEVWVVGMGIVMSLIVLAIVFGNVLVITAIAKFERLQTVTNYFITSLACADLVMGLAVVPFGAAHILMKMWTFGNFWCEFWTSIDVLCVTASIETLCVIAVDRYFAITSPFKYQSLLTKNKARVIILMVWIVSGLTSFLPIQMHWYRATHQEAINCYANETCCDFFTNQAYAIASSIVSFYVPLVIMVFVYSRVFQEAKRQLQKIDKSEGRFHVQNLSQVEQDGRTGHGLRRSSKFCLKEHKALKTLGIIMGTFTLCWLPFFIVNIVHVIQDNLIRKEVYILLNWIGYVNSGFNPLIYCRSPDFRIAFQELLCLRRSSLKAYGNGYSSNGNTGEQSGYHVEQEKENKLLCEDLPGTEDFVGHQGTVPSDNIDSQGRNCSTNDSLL
Sequence of D(1A) dopamine receptor (P21728 whole entry): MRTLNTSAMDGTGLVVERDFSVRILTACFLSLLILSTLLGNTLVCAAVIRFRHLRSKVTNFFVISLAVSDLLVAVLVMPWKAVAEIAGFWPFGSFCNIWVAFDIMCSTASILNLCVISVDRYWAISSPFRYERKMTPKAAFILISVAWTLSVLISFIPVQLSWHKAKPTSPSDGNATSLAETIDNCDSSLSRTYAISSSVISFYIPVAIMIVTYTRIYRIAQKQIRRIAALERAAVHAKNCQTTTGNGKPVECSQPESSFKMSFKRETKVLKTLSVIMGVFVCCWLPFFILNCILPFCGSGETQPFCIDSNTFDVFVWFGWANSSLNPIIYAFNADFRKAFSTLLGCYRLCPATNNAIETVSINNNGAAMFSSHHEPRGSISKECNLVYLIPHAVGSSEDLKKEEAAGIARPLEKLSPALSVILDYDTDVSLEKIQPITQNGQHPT
T2 sequence (Q9Y5N1 whole entry): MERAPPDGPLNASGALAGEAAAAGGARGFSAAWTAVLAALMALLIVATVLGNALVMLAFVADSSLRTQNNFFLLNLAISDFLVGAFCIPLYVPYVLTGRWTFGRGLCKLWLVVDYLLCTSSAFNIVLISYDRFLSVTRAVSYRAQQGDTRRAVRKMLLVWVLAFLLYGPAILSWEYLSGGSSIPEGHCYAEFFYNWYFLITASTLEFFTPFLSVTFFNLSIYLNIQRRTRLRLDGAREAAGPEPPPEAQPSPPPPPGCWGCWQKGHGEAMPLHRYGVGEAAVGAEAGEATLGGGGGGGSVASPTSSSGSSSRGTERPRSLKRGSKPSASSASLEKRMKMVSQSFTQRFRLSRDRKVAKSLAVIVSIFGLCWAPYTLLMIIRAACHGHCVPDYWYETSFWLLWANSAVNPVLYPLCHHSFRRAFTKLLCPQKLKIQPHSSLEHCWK

Row | Compound | AC50 [1] [µM] | AC50 [2] [µM] | AC50 (Histamine H3 receptor [3]) [µM] | AC50 [4] [µM] | AC50 [5] [µM] | AC50 (Melanocortin receptor 4) [µM] | AC50 (Cannabinoid receptor 1) [µM] | AC50 (Thromboxane A2 receptor [6]) [µM] | AC50 (D(1A) dopamine receptor) [µM] | AC50 (Histamine H3 receptor [7]) [µM] | AC50 (Thromboxane A2 receptor [8]) [µM] | AC50 [9] [µM] | AC50 [10] [µM] | AC50 [11] [µM]
1 | CCOC(=O)[C@H](CCc1ccccc1)N[C@@H](C)C(=O)N1CCC[C@H]1C(=O)O | > 10 | > 10 | > 10 | > 10 | > 30 | > 30 | > 30 | > 30 |  |  |  |  |  | 
2 | Nc1nc(N)c2nc(-c3ccccc3)c(N)nc2n1 | > 10 | > 30 | > 30 | > 30 | > 30 | > 10 | > 30 | > 30 | > 30 | > 30 | > 30 | > 30 |  | 
3 | C[C@H]1O[C@H](O[C@H]2[C@H](O)[C@@H](O)[C@@H](O[C@H]3[C@H](O)[C@@H](O)C(O)O[C@@H]3CO)O[C@@H]2CO)[C@H](O)[C@@H](O)[C@@H]1N[C@H]1C=C(CO)[C@@H](O)[C@H](O)[C@H]1O (stereo not given in full) [ACARBOSE] | > 10 | > 30 | > 30 | > 10 | > 30 | > 30 | 30 | > 30 | > 30 | > 30 | > 30 | > 30 |  | 
4 | CC(N)Cc1ccccc1 (stereo not given) [AMPHETAMINE] | > 10 |  | > 30 | > 10 | > 30 | > 30 | > 30 | > 30 |  |  |  |  | > 30 | 
5 | COc1cc(Nc2c(C#N)cnc3cc(OCCCN4CCN(C)CC4)c(OC)cc23)c(Cl)cc1Cl [BOSUTINIB] |  | > 10 |  | 10 |  | 17.7 |  | > 30 | 4.64 |  | > 3 | 7.58 | > 10 | > 10
6 | CCC[C@@H]1C[C@@H](C(=O)N[C@@H]([C@H]2O[C@H](SC)[C@H](O)[C@@H](O)[C@H]2O)[C@H](C)Cl)N(C)C1 [CLINDAMYCIN] | 3.42 | > 10 | > 10 | > 10 | > 30 | > 30 | > 30 | > 30 |  |  |  |  |  | 
7 | O=C(O)c1cc(-c2ccc(F)cc2F)ccc1O [DIFLUNISAL] | > 30 | > 10 |  | > 10 |  | > 10 |  | > 10 |  |  |  |  |  | 
8 | COc1cc2c(cc1OC)C(=O)C(CC1CCN(Cc3ccccc3)CC1)C2 (stereo not given) [DONEPEZIL] |  | > 10 | 2.5 | > 10 |  | > 30 | > 30 | > 30 | > 30 | 5.2 | > 30 | 15.9 | 8.2 | > 10
9 | C#C[C@]1(O)CC[C@H]2[C@@H]3CCc4cc(O)ccc4[C@H]3CC[C@@]21C [ETHINYL ESTRADIOL] | > 10 | > 10 | > 10 | > 10 |  | > 30 |  | 15 | > 30 | > 30 | > 10 | > 30 |  | 
10 | NC(N)=Nc1nc(CSCCC(N)=NS(N)(=O)=O)cs1 [FAMOTIDINE] | > 10 | > 10 | > 10 | > 10 | > 30 | > 30 | > 30 | > 30 |  |  |  |  |  | 
11 | CC(C)C(=O)Nc1ccc([N+](=O)[O-])c(C(F)(F)F)c1 [FLUTAMIDE] | > 30 | > 10 | > 30 | > 10 | > 30 | > 30 |  | > 30 | > 30 | > 30 | 18.4 | > 30 |  | 
12 | NS(=O)(=O)c1cc2c(cc1Cl)NCNS2(=O)=O [HYDROCHLOROTHIAZIDE] | > 10 | > 10 | > 10 | > 10 |  | > 30 |  | > 30 |  |  |  |  |  | 
13 | NC[C@H]1O[C@H](O[C@H]2[C@H](O)[C@@H](O[C@H]3O[C@H](CO)[C@@H](O)[C@H](N)[C@H]3O)[C@H](N)C[C@@H]2N)[C@H](O)[C@@H](O)[C@@H]1O [KANAMYCIN] | > 30 | > 10 |  | > 30 | > 30 | > 10 |  | > 10 |  |  |  |  |  | 
14 | C[C@H]1C[C@@H]2[C@H]([C@@H](O)C[C@@]3(C)[C@H]2CC[C@]3(O)C(=O)CO)[C@@]2(C)C=CC(=O)C=C12 [METHYLPREDNISOLONE] | > 30 | > 10 |  | > 10 |  | > 10 |  | > 10 |  |  |  |  |  | 
15 | CCN(CC)CCNC(=O)c1cc(Cl)c(N)cc1OC [METOCLOPRAMIDE] | > 10 | > 10 | > 10 | > 10 | > 30 | > 30 | > 30 | > 30 |  |  |  |  |  | 
16 | CC(C)(C(=O)c1cccnc1)c1cccnc1 [METYRAPONE] | > 10 | > 10 |  | > 10 |  | > 10 |  | > 10 |  |  |  |  |  | 
17 | COC(=O)C1=C(C)NC(C)=C(C(=O)OCC(C)C)C1c1ccccc1[N+](=O)[O-] (stereo not given) [NISOLDIPINE] | 16 | > 10 |  | > 10 | > 30 | > 10 | 12 | > 10 |  |  |  |  |  | 
18 | NC1=NC(=O)C(c2ccccc2)O1 (stereo not given) [PEMOLINE] | > 10 | > 10 | > 10 | > 10 |  | > 30 |  | > 30 |  |  |  |  |  | 
19 | CCc1ccc(CCOc2ccc(CC3SC(=O)NC3=O)cc2)nc1 (stereo not given) [PIOGLITAZONE] | > 10 | > 10 |  | > 10 |  | > 30 |  | > 30 | > 30 | > 3 | 9.68 | > 30 |  | 
20 | NC[C@H]1CC[C@H](C(=O)O)CC1 [TRANEXAMIC ACID] | > 30 | > 10 |  | > 10 |  | > 10 |  | > 10 |  |  |  |  |  | 
